Data as given in patent publication US20240368115A1, “REGULATOR CONTAINING TRICYCLIC DERIVATIVE, PREPARATION METHOD THEREFOR AND APPLICATION THEREOF” (SHUJING BIOPHARMA CO., LTD, priority 2021, published 2024).
pEC50, pIC50: −log10 of the molar value. Read-outs that look alike come from different tables or passages of the source.

Tests used:
D2S receptor = biological target: T1, D2S receptor (Homo sapiens, UniProt P14416); assay: D2S receptor cAMP agonist test; type: cell-based; conditions: HEK293 cell strain stably expressing D2S receptor; for pEC50: cAMP, forskolin 5×10^−7 M; for D2S Max Act %: positive control dopamine 1×10^−7 M
T1 construct: expressed in transfected cells
T1 sequence (P14416 1-414 isoform P14416-2): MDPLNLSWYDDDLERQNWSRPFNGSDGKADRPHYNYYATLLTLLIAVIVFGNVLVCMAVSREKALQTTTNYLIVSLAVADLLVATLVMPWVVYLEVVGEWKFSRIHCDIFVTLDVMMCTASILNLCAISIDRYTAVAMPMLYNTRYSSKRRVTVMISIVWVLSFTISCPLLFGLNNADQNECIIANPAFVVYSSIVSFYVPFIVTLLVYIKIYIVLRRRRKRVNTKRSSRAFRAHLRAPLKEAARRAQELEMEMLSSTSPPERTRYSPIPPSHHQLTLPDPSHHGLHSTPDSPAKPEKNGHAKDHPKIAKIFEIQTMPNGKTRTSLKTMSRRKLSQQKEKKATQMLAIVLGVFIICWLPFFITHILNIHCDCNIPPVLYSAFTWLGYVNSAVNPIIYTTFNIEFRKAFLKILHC
Excerpt: cAMP detection kit was purchased from Cisbio; an HEK293 cell strain stably expressing D2S receptor was constructed by Shanghai Shujing Biopharma Co., Ltd.; dopamine, forskolin, and IBMX were purchased from Sigma; ProxiPlate-384 well plates were purchased from PerkinElmer; HBSS was purchased from Thermo Fisher Scientific.
(§1) • (1) The cultured cells were digested with trypsin, and the cell suspension was washed with HBSS buffer after the digestion was terminated. The medium was removed by centrifugation at 200×g. The pellet was resuspended in an appropriate amount of experimental buffer, and 20 μL of cell suspension was counted using a cell counter and diluted to 0.6×10^6 cells/mL. • (2) 5 μL of cell suspension was added to a ProxiPlate-384 well plate (3×10^3 cells/well). • (3) Test compounds were serially diluted in an experimental buffer, and 5 μL of the mixed solution was transferred to the reaction plate with Bravo.

5-HT1A receptor = biological target: T2, 5-HT1A receptor (Homo sapiens, UniProt P08908); assay: 5-HT1A receptor cAMP agonist test; type: cell-based; conditions: HEK293 cell strain stably expressing 5-HT1A receptor; for pEC50: cAMP, forskolin 2.5×10^−7 M; for 5-HT1A Max Act %: positive control serotonin 10^−6 M
T2 construct: expressed in transfected cells
T2 sequence (P08908 1-422): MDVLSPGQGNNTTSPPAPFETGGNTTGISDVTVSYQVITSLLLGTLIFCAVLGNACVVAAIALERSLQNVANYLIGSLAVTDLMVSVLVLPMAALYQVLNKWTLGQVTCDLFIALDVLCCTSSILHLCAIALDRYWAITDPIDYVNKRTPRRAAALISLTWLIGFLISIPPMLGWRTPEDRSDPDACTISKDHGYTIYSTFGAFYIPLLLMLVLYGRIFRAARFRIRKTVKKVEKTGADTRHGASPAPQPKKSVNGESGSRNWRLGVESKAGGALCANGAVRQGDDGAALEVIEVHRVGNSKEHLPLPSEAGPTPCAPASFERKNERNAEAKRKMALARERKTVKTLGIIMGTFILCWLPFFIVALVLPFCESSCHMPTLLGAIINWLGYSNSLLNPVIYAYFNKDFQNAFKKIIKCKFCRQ
Excerpt: • cAMP detection kit was purchased from Cisbio; an HEK293 cell strain stably expressing 5-HT1A receptor was constructed by Shanghai Shujing Biopharma Co., Ltd.; serotonin, forskolin, and IBMX were purchased from Sigma; ProxiPlate-384 well plates were purchased from PerkinElmer; HBSS was purchased from Thermo Fisher Scientific.
as §1, with “0.4×10^6” for “0.6×10^6”, “(2×10^3” for “(3×10^3”

5-HT2A receptor = 5-HT2A receptor (Homo sapiens, UniProt P28223); assay: Calcium flux test for 5-HT2A receptor; type: cell-based; conditions: CHO cell strain stably expressing 5-HT2A receptor; for pIC50: calcium flux, antagonism of serotonin; for 5-HT2A Max Inh %: positive control ketanserin 10^−7 M
Sequence of 5-HT2A receptor (P28223 whole entry): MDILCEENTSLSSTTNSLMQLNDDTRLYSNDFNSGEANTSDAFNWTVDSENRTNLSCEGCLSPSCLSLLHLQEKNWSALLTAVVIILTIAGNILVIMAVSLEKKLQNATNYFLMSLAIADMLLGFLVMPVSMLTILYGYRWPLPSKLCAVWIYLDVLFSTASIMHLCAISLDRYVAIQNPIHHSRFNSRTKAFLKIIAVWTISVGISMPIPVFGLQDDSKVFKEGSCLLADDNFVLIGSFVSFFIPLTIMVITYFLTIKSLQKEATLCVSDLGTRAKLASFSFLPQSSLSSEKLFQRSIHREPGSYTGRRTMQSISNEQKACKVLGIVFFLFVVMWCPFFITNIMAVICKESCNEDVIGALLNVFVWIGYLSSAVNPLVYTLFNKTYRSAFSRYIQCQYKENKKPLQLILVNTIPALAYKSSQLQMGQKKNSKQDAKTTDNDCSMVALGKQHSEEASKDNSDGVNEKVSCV
Procedure: • Fluo-4 calcium flux detection kit was purchased from Invitrogen; a CHO cell strain stably expressing 5-HT2A receptor was purchased from PerkinElmer; serotonin was purchased from Sigma; ketanserin was purchased from Targetmol; polylysine-coated 384-well plates and 384-well compound plates were purchased from Greiner Bio-One. Molecular Device FLIPR, Agilent Bravo liquid workstation, and Countstar BioTech cell counter.
• (1) The cryopreserved cells were rapidly thawed in a water bath at 37° C., and the cells were resuspended in a plating medium. The cryopreservation solution was removed by centrifugation at 200×g. The pellet was resuspended in an appropriate amount of plating medium, 20 μL of cell suspension was counted using a cell counter, and the cell density was diluted to 1×10^6 cells/mL. • (2) 20 μL of cell suspension was added to a polylysine-coated 384-well plate (2×10^4 cells/well). • (3) The cell plate was incubated in a 37° C./5% CO2 incubator for 16-20 h.
• (1) The cell plate was taken out from the incubator and centrifuged at 100×g to remove the medium. 20 μL of experimental buffer was added, and then 20 μL of 2× fluorescent probe solution was added. […] The cell plate and agonist positive compound plate were placed into the FLIPR instrument, the detection program was run, 10 μL of the diluted compound was transferred from the agonist compound plate to the cell plate, and the fluorescence signal was read. […] The cell plate and test compound plate were placed in the FLIPR instrument, the detection program was run, and 10 μL of the diluted compound was transferred from the test compound plate to the cell plate. […] The test compound plate was then taken out, and the agonist positive compound plate with 6×EC50 concentration was placed.
Inhibition rate (Inhibition %)=(negative control reading value−compound reading value)/(negative control reading value−positive control reading value)×100%

D2L receptor = biological target: T3, D2L receptor (Homo sapiens, UniProt P14416); assay: D2L receptor cAMP agonist test; type: cell-based; conditions: HEK293 cell strain stably expressing D2L receptor; for pEC50: cAMP, forskolin 0.5 μM; for D2L Max Act %: positive control dopamine 1 μM
T3 construct: expressed in transfected cells
T3 sequence (P14416 whole entry): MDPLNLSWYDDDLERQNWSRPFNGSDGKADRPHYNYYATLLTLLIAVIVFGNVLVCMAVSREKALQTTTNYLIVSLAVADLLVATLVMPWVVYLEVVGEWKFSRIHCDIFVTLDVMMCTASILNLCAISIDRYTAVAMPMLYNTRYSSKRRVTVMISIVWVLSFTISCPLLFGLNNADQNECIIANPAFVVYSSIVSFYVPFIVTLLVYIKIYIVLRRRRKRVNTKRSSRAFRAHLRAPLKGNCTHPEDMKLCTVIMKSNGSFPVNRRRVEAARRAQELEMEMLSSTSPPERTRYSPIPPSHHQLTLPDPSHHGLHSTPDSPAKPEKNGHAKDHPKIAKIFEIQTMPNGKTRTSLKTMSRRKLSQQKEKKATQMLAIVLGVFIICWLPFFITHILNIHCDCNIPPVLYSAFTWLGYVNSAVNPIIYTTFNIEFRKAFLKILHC
Procedure: • cAMP detection kit was purchased from Cisbio; an HEK293 cell strain stably expressing D2L receptor was constructed by Shanghai Shujing Biopharma Co., Ltd.; dopamine, forskolin, and IBMX were purchased from Sigma; ProxiPlate-384 well plates were purchased from PerkinElmer; HBSS was purchased from Thermo Fisher Scientific.
• (1) The cryopreserved cells were thawed in a water bath at 37° C., the cell suspension was resuspended in HBSS buffer, and the mixed solution was centrifuged at 750 rpm for 5 min to remove the medium. The pellet was resuspended in an appropriate amount of experimental buffer, and an appropriate amount of cell suspension was diluted to 0.4×10^6 cells/mL. • (2) 5 μL of cell suspension was added to a ProxiPlate-384 well plate (2×10^3 cells/well), and the plate was centrifuged at 1000 rpm for 1 min. • (3) Test compounds were serially diluted in an experimental buffer, and 5 μL of the mixed solution was transferred to the reaction plate with Bravo.

[1] = Pharmacokinetic test in mice; type: in vivo; conditions: plasma, 5 mg/kg, oral intragastric, single dose 5 mg/kg
Procedure: Male ICR mice were administered orally intragastrically, the plasma concentrations of the compounds of the present invention were measured in the mice, the PK parameters were calculated, and the pharmacokinetic evaluation was performed on the compounds of the present invention.
• (1) Test samples: the compounds of the examples of the present invention, self-made. • (2) Test animals: ICR mice, SPF grade, male, Xuzhou Medical University. • (3) Main test instruments:
Drug preparation: according to the weight of the weighed drug, the preparation volume was calculated. 5% of DMSO was added firstly. After the drug was fully dissolved, 95% of 20% aqueous PB-cyclodextrin solution was then added, and the mixture was mixed well for later use.
Administration route: oral intragastric administration. Frequency and duration of administration: single administration.
ICR mice were stratified according to body weight and then randomly divided into groups of 9 mice each, and the mice were fasted overnight prior to the test. The mice were separately administered orally intragastrically. 50 μL of blood was collected from the fundus vein of the mouse at 0 h, 0.083 h, 0.25 h, 0.5 h, 1 h, 2 h, 4 h, 8 h, 12 h, and 24 h (3 time points for each mouse) to a sample tube containing heparin sodium as an anticoagulant, and the tube was placed in wet ice and centrifuged at 4000 r·min^−1 for 10 min. The plasma was separated, and cryopreserved in a refrigerator at −80° C. for testing.
The concentrations of plasma samples were measured by high performance liquid chromatography-tandem mass spectrometry (LC-MS/MS). The retention times of the compounds and internal standard, chromatogram acquisitions, and integrals of chromatograms were processed using the software Analyst (AB SCIEX), and the data statistics were processed using the software Watson LIMS (Thermo Fisher Scientific) or Analyst (AB SCIEX). The concentration of plasma was processed using a non-compartmental model of the pharmacokinetic software WinNonlin™ Version 6.3 (Pharsight, Mountain View, CA), and pharmacokinetic parameters were calculated by a linear log-trapezoidal method.

[2] = male, ICR, mouse, po, read-out: AUC(0-inf)
[3] = male, ICR, mouse, po, read-out: Cmax

O=C1Nc2cc(OCCCCN3CCN(c4cccc(Cl)c4Cl)CC3)ccc2[C@H]2C[C@@H]12 (single isomer, unassigned) [Example 1-P1]
pEC50 (D2S receptor): 9.03 | D2S Max Act % (D2S receptor): 111.9% | pEC50 (5-HT1A receptor): 5.75 | 5-HT1A Max Act % (5-HT1A receptor): 33.9% | pIC50 (5-HT2A receptor): 6.13 | 5-HT2A Max Inh % (5-HT2A receptor): 100.3% | pEC50 (D2L receptor): 8.97 | D2L Max Act % (D2L receptor): 47.7% | half-life ([1]; male, ICR, mouse, po): 34.3 h | AUC(0-inf) [1, 2]: 13100 ng·h/mL | Cmax [1, 3]: 341 ng/mL

O=C1Nc2cc(OCCCCN3CCN(c4cccc(Cl)c4Cl)CC3)ccc2[C@@H]2C[C@H]12 (single isomer, unassigned) [Example 1-P2]
pEC50 (D2S receptor): 8.83 | D2S Max Act % (D2S receptor): 113.8% | pEC50 (5-HT1A receptor): 5.92 | 5-HT1A Max Act % (5-HT1A receptor): 45.2% | pIC50 (5-HT2A receptor): 6.13 | 5-HT2A Max Inh % (5-HT2A receptor): 100.3% | pEC50 (D2L receptor): 9.21 | D2L Max Act % (D2L receptor): 33.1% | half-life ([1]; male, ICR, mouse, po): 10.8 h | AUC(0-inf) [1, 2]: 7100 ng·h/mL | Cmax [1, 3]: 430 ng/mL

O=C1Nc2cc(OCCCCN3CCN(c4cccc5sccc45)CC3)ccc2C2CC12 (single isomer, unassigned) [Example 42-P1]
pEC50 (D2S receptor): 9.00 | D2S Max Act % (D2S receptor): 102.0% | pEC50 (5-HT1A receptor): 6.84 | 5-HT1A Max Act % (5-HT1A receptor): 62.9% | pIC50 (5-HT2A receptor): 5.71 | 5-HT2A Max Inh % (5-HT2A receptor): 100.5% | pEC50 (D2L receptor): 9.00 | D2L Max Act % (D2L receptor): 29.6% | half-life ([1]; male, ICR, mouse, po): 4.1 h | AUC(0-inf) [1, 2]: 8000 ng·h/mL | Cmax [1, 3]: 1180 ng/mL

O=C1Nc2cc(OCCCCN3CCN(c4cccc5sccc45)CC3)ccc2C2CC12 (single isomer, unassigned) [Example 42-P2]
pEC50 (D2S receptor): 9.03 | D2S Max Act % (D2S receptor): 99.2% | pEC50 (5-HT1A receptor): 6.16 | 5-HT1A Max Act % (5-HT1A receptor): 45.5% | pIC50 (5-HT2A receptor): 6.30 | 5-HT2A Max Inh % (5-HT2A receptor): 97.3% | pEC50 (D2L receptor): 9.37 | D2L Max Act % (D2L receptor): 32.6% | AUC(0-inf) ([1]; male ICR mice): 11157.8 ng·h/mL | Cmax ([1]; male ICR mice): 1296.7 ng/mL | t1/2 ([1]; male ICR mice): 5.8 h

O=C1Nc2cc(OCCCCN3CCN(c4cccc5c4CCO5)CC3)ccc2C2CC12 (single isomer, unassigned) [Example 45-P1]
pEC50 (D2S receptor): 9.00 | D2S Max Act % (D2S receptor): 106.1% | pEC50 (5-HT1A receptor): 6.61 | 5-HT1A Max Act % (5-HT1A receptor): 56.4% | pIC50 (5-HT2A receptor): 6.40 | 5-HT2A Max Inh % (5-HT2A receptor): 99.8% | pEC50 (D2L receptor): 8.67 | D2L Max Act % (D2L receptor): 28.0% | half-life ([1]; male, ICR, mouse, po): 3.2 h | AUC(0-inf) [1, 2]: 4770 ng·h/mL | Cmax [1, 3]: 774 ng/mL

O=C1CCc2ccc(OCCCCN3CCN(c4cccc(Cl)c4Cl)CC3)cc2N1 [Aripiprazole, reference compound]
5-HT1A Max Act % (5-HT1A receptor): 43.8% | 5-HT2A Max Inh % (5-HT2A receptor): 86.0% | half-life ([1]; male, ICR, mouse, po): 3.5 h | AUC(0-inf) [1, 2]: 1040 ng·h/mL | Cmax [1, 3]: 180 ng/mL

O=C1Nc2cc(OCCCCN3CCN(c4ccc(Cl)s4)CC3)ccc2C2CC12 (stereo not drawn) [Example 51]
pEC50 (D2S receptor): 9.12 | D2S Max Act % (D2S receptor): 111.1% | pEC50 (5-HT1A receptor): 7.13 | 5-HT1A Max Act % (5-HT1A receptor): 79.4% | pIC50 (5-HT2A receptor): 5.60 | 5-HT2A Max Inh % (5-HT2A receptor): 99.8% | pEC50 (D2L receptor): 8.82 | D2L Max Act % (D2L receptor): 82.6%

O=C1COc2ccc(OCCCCN3CCN(c4cccc(Cl)c4Cl)CC3)cc2N1 [RP5063, reference compound]
pEC50 (5-HT1A receptor): 5.73 | 5-HT1A Max Act % (5-HT1A receptor): 31.6% | pIC50 (5-HT2A receptor): 5.04 | 5-HT2A Max Inh % (5-HT2A receptor): 67.6% | half-life ([1]; male, ICR, mouse, po): 3.8 h | AUC(0-inf) [1, 2]: 1560 ng·h/mL | Cmax [1, 3]: 195 ng/mL
